Starred links: 1 amine or outer side, 2 acyl side, 3 side chain; linkers in the order of their positions; H or OH if unused. Non-standard residues stand in square brackets, D forms with d. Residues, ends and D or L forms follow the SMILES beside them. *: point of attachment. X3 = O=C(N[C@H]1CC[C@H](C[C@@H](N[*:1])C(=O)[*:2])CC1)c1cnccn1; X5 = O=C([C@H](CCCCNC1CCCC1)N[*:1])[*:2]; dPhe(4-Cl) = N[C@H](Cc1ccc(Cl)cc1)C(=O)O; X10 = O=C([C@@H](Cc1cnccn1)N[*:1])[*:2]; d2Nal = N[C@H](Cc1ccc2ccccc2c1)C(=O)O; dLys(iPr) = CC(C)NCCCC[C@@H](N)C(=O)O; Lys(iPr) = CC(C)NCCCC[C@H](N)C(=O)O; Orn(iPr) = CC(C)NCCC[C@H](N)C(=O)O; aIle = CC[C@@H](C)[C@H](N)C(=O)O; d3Pal = N[C@H](Cc1cccnc1)C(=O)O; Nicotinoyl = O=C(c1cccnc1)*; Picolinoyl = O=C(c1ccccn1)*
tested on: anaesthesized rats; assay: wheal test, intradermal injection; format: in vivo, rat; set-up: Wheal (wheal response): unit not given here; conditions: 10 ug peptide intradermally
Procedure: The antiovulatory activity, AOA, in rats was determined as described by Humphries et al. (12). Antiovulation assays were performed by counting, on estrus, the number of ova shed by 4-day cycling rats after a single sc injection of the LH-RH analogue in corn oil was administered between 12 and 12:30 p.m. on […]. The control rats received 0.3 mL of the vehicle. The wheal test was performed by intradermally injecting 10 ug of peptide in 100 ul of saline into anaesthesized rats, measuring the ideally circular wheal response and calculating the area. The in vitro histamine release test was done as described by Karten et al. (4). A suspension of rat mast cells was added to increasing concentrations of peptide and the mixture was incubated for a few minutes followed by centrifugation to collect the histamine in the supernatant. A PIPES (piperazine-N,N'-bis[2-ethanesulfonic acid]) medium buffered at pH 7.4 containing NaCl 119 mM, KCl 5 mM, PIPES 25 mM, NaOH 40 mM, glucose 5.6 mM, CaCl2 1 mM, and 0.1% bovine serum albumin was used. This was designated as PIPES AC. Peptides were dissolved in double distilled H2 O at a concentration of 2 mg/ml and stored at -20° C. They were thawed just prior to testing, diluted in PIPES AC and prewarmed for five minutes at 37° C. Peptides studied were stable to heating at 56° C. for two hours, and to freezing and thawing.

Wheal Area [mm^2 /10 μg] | SMILES
106.3 ± 4.3 | CC(=O)N[C@H](Cc1ccc2ccccc2c1)C(=O)N[C@H](Cc1ccc(Cl)cc1)C(=O)N[C@H](Cc1cccnc1)C(=O)N[C@@H](CO)C(=O)N[C@@H](CCCCNC(=O)c1ccccn1)C(=O)N[C@H](C[C@H]1CC[C@H](NC(=O)c2cnccn2)CC1)C(=O)N[C@@H](CC(C)C)C(=O)N[C@@H](CCCCNC(C)C)C(=O)N1CCC[C@H]1C(=O)N[C@H](C)C(N)=O [IV-5] (Ac-[d2Nal][dPhe(4-Cl)][d3Pal]SK(Picolinoyl)[X3]L[Lys(iPr)]P[dA]-NH2)
103.9 ± 3.4 | CC(=O)N[C@H](Cc1ccc2ccccc2c1)C(=O)N[C@H](Cc1ccc(Cl)cc1)C(=O)N[C@H](Cc1cnccn1)C(=O)N[C@@H](CO)C(=O)N[C@@H](CCCCNC(=O)c1ccccn1)C(=O)N[C@H](CCCCNC(=O)c1ccccn1)C(=O)N[C@@H](CC(C)C)C(=O)N[C@@H](CCCNC(C)C)C(=O)N1CCC[C@H]1C(=O)N[C@H](C)C(N)=O [compound 26119] (Ac-[d2Nal][dPhe(4-Cl)][X10]SK(Picolinoyl)[dK](Picolinoyl)L[Orn(iPr)]P[dA]-NH2)
97.9 ± 2.9 | CC(=O)N[C@H](Cc1ccc2ccccc2c1)C(=O)N[C@H](Cc1ccc(Cl)cc1)C(=O)N[C@H](Cc1cccnc1)C(=O)N[C@@H](CO)C(=O)N[C@@H](CCCCNC(=O)c1ccccn1)C(=O)N[C@H](CCCCNC(=O)c1ccccn1)C(=O)N[C@H](C(=O)N[C@@H](CCCCNC(C)C)C(=O)N1CCC[C@H]1C(=O)N[C@H](C)C(N)=O)C(C)C [compound 25934] (Ac-[d2Nal][dPhe(4-Cl)][d3Pal]SK(Picolinoyl)[dK](Picolinoyl)V[Lys(iPr)]P[dA]-NH2)
97.9 ± 2.9 | CC[C@@H](C)[C@H](NC(=O)[C@@H](CCCCNC(=O)c1ccccn1)NC(=O)[C@H](CCCCNC(=O)c1ccccn1)NC(=O)[C@H](CO)NC(=O)[C@@H](Cc1cccnc1)NC(=O)[C@@H](Cc1ccc(Cl)cc1)NC(=O)[C@@H](Cc1ccc2ccccc2c1)NC(C)=O)C(=O)N[C@@H](CCCCNC(C)C)C(=O)N1CCC[C@H]1C(=O)N[C@H](C)C(N)=O [compound 25936] (Ac-[d2Nal][dPhe(4-Cl)][d3Pal]SK(Picolinoyl)[dK](Picolinoyl)[aIle][Lys(iPr)]P[dA]-NH2)

same assay, conditions: Table I; 10 ug peptide intradermally

Wheal [mm^2 /10] | SMILES
147.7 | CC[C@H](C)[C@H](NC(=O)[C@H](CO)NC(=O)[C@@H](Cc1cccnc1)NC(=O)[C@@H](Cc1ccc(Cl)cc1)NC(=O)[C@@H](Cc1ccc2ccccc2c1)NC(C)=O)C(=O)N[C@H](CCCCNC(=O)c1cccnc1)C(=O)N[C@@H](CC(C)C)C(=O)N[C@@H](CCCCNC(C)C)C(=O)N1CCC[C@H]1C(=O)N[C@H](C)C(N)=O [compound 25144] (Ac-[d2Nal][dPhe(4-Cl)][d3Pal]SI[dK](Nicotinoyl)L[Lys(iPr)]P[dA]-NH2)
123.0 | CC(=O)N[C@H](Cc1ccc2ccccc2c1)C(=O)N[C@H](Cc1ccc(Cl)cc1)C(=O)N[C@H](Cc1cccnc1)C(=O)N[C@@H](CO)C(=O)N[C@@H](CCCCNC(=O)c1ccccn1)C(=O)N[C@H](CCCCNC(=O)c1ccccn1)C(=O)N[C@@H](CC(C)C)C(=O)N[C@@H](CCCCNC(C)C)C(=O)N1CCC[C@H]1C(=O)N[C@H](C)C(N)=O [compound 25147] (Ac-[d2Nal][dPhe(4-Cl)][d3Pal]SK(Picolinoyl)[dK](Picolinoyl)L[Lys(iPr)]P[dA]-NH2)

The remaining lines, values behind:

SMILES | Wheal [mm^2 /10]
CC(=O)N[C@H](Cc1ccc2ccccc2c1)C(=O)N[C@H](Cc1ccc(Cl)cc1)C(=O)N[C@H](Cc1cccnc1)C(=O)N[C@@H](CO)C(=O)N[C@@H](Cc1c[nH]cn1)C(=O)N[C@H](CCCCNC(=O)c1cccnc1)C(=O)N[C@@H](CC(C)C)C(=O)N[C@@H](CCCCNC(=O)c1cccnc1)C(=O)N1CCC[C@H]1C(=O)N[C@H](C)C(N)=O [compound 24745] (Ac-[d2Nal][dPhe(4-Cl)][d3Pal]SH[dK](Nicotinoyl)LK(Nicotinoyl)P[dA]-NH2) | 136.3 ± 6.8
CC(=O)N[C@H](Cc1ccc2ccccc2c1)C(=O)N[C@H](Cc1ccc(Cl)cc1)C(=O)N[C@H](Cc1cccnc1)C(=O)N[C@@H](CO)C(=O)N[C@@H](Cc1ccc(O)cc1)C(=O)N[C@H](CCCCNC(C)C)C(=O)N[C@@H](CC(C)C)C(=O)N[C@@H](CCCCNC(=O)c1cccnc1)C(=O)N1CCC[C@H]1C(=O)N[C@H](C)C(N)=O [compound 24824] (Ac-[d2Nal][dPhe(4-Cl)][d3Pal]SY[dLys(iPr)]LK(Nicotinoyl)P[dA]-NH2) | 122.8 ± 5.8
CC(=O)N[C@H](Cc1ccc2ccccc2c1)C(=O)N[C@H](Cc1ccc(Cl)cc1)C(=O)N[C@H](Cc1cccnc1)C(=O)N[C@@H](CO)C(=O)N[C@@H](CCCNC(=N)N)C(=O)N[C@H](Cc1cccnc1)C(=O)N[C@@H](CC(C)C)C(=O)N[C@@H](CCCCNC(=O)c1cccnc1)C(=O)N1CCC[C@H]1C(=O)N[C@H](C)C(N)=O [compound 24771] (Ac-[d2Nal][dPhe(4-Cl)][d3Pal]SR[d3Pal]LK(Nicotinoyl)P[dA]-NH2) | 99.0 ± 10.3
CC(=O)N[C@H](Cc1ccc2ccccc2c1)C(=O)N[C@H](Cc1ccc(Cl)cc1)C(=O)N[C@H](Cc1cccnc1)C(=O)N[C@@H](CO)C(=O)N[C@@H](CCCCNC(=O)c1cccnc1)C(=O)N[C@H](CCCCNC(=O)c1cccnc1)C(=O)N[C@@H](CC(C)C)C(=O)N[C@@H](CCCCNC(=O)c1cccnc1)C(=O)N1CCC[C@H]1C(=O)N[C@H](C)C(N)=O [compound 24596] (Ac-[d2Nal][dPhe(4-Cl)][d3Pal]SK(Nicotinoyl)[dK](Nicotinoyl)LK(Nicotinoyl)P[dA]-NH2) | 122.8 ± 5.7
CC(=O)N[C@H](Cc1ccc2ccccc2c1)C(=O)N[C@H](Cc1ccc(Cl)cc1)C(=O)N[C@H](Cc1cccnc1)C(=O)N[C@@H](CO)C(=O)N[C@@H](CCCCNC(=O)c1cccnc1)C(=O)N[C@H](CCCCNC(=O)c1cccnc1)C(=O)N[C@@H](CC(C)C)C(=O)N[C@@H](CCCCNC1CCCC1)C(=O)N1CCC[C@H]1C(=O)N[C@H](C)C(N)=O [compound 25078] (Ac-[d2Nal][dPhe(4-Cl)][d3Pal]SK(Nicotinoyl)[dK](Nicotinoyl)L[X5]P[dA]-NH2) | 147.0
CC(=O)N[C@H](Cc1ccc2ccccc2c1)C(=O)N[C@H](Cc1ccc(Cl)cc1)C(=O)N[C@H](Cc1cccnc1)C(=O)N[C@@H](CO)C(=O)N[C@@H](Cc1ccc(O)cc1)C(=O)N[C@H](CCCCNC(=O)c1cccnc1)C(=O)N[C@@H](CC(C)C)C(=O)N[C@@H](CCCCNC(=O)c1cccnc1)C(=O)N1CCC[C@H]1C(=O)N[C@H](C)C(N)=O [compound 24540] (Ac-[d2Nal][dPhe(4-Cl)][d3Pal]SY[dK](Nicotinoyl)LK(Nicotinoyl)P[dA]-NH2) | 82.6 ± 2.8
CC(=O)N[C@H](Cc1ccc2ccccc2c1)C(=O)N[C@H](Cc1ccc(Cl)cc1)C(=O)N[C@H](Cc1cccnc1)C(=O)N[C@@H](CO)C(=O)N[C@@H](CCCCNC(=O)c1cccnc1)C(=O)N[C@H](Cc1cccnc1)C(=O)N[C@@H](CC(C)C)C(=O)N[C@@H](CCCNC(=N)N)C(=O)N1CCC[C@H]1C(=O)N[C@H](C)C(N)=O [compound 22495] (Ac-[d2Nal][dPhe(4-Cl)][d3Pal]SK(Nicotinoyl)[d3Pal]LRP[dA]-NH2) | 112
CC(=O)N[C@H](Cc1ccc2ccccc2c1)C(=O)N[C@H](Cc1ccc(Cl)cc1)C(=O)N[C@H](Cc1cccnc1)C(=O)N[C@@H](CO)C(=O)N[C@@H](Cc1ccc(O)cc1)C(=O)N[C@H](CCCCNC(=O)c1cccnc1)C(=O)N[C@@H](CC(C)C)C(=O)N[C@@H](CCCCNC(C)C)C(=O)N1CCC[C@H]1C(=O)N[C@H](C)C(N)=O [compound 24315] (Ac-[d2Nal][dPhe(4-Cl)][d3Pal]SY[dK](Nicotinoyl)L[Lys(iPr)]P[dA]-NH2) | 79.0 ± 9.2
CC(=O)N[C@H](Cc1ccc2ccccc2c1)C(=O)N[C@H](Cc1ccc(Cl)cc1)C(=O)N[C@H](Cc1ccc(O)cc1)C(=O)N[C@@H](CO)C(=O)N[C@@H](CCCNC(=N)N)C(=O)N[C@H](CCCCNC(=O)c1cccnc1)C(=O)N[C@@H](CC(C)C)C(=O)N[C@@H](CCCNC(=N)N)C(=O)N1CCC[C@H]1C(=O)N[C@H](C)C(N)=O [compound 24446] (Ac-[d2Nal][dPhe(4-Cl)][dY]SR[dK](Nicotinoyl)LRP[dA]-NH2) | 113.2

same assay, conditions: Table XIV and text, unit not given

Wheal (wheal response) | SMILES
78.6±4.5 | CC[C@@H](C)[C@H](NC(=O)[C@@H](CCCCNC(=O)c1ccccn1)NC(=O)[C@H](CCCCNC(=O)c1ccccn1)NC(=O)[C@H](CO)NC(=O)[C@@H](Cc1cccnc1)NC(=O)[C@@H](Cc1ccc(Cl)cc1)NC(=O)[C@@H](Cc1ccc2ccccc2c1)NC(C)=O)C(=O)N[C@@H](CCCNC(C)C)C(=O)N1CCC[C@H]1C(=O)N[C@H](C)C(N)=O [IBR 26178] (Ac-[d2Nal][dPhe(4-Cl)][d3Pal]SK(Picolinoyl)[dK](Picolinoyl)[aIle][Orn(iPr)]P[dA]-NH2)
97.9±2.9 | CC[C@@H](C)[C@H](NC(=O)[C@@H](CCCCNC(=O)c1ccccn1)NC(=O)[C@H](CCCCNC(=O)c1ccccn1)NC(=O)[C@H](CO)NC(=O)[C@@H](Cc1cccnc1)NC(=O)[C@@H](Cc1ccc(Cl)cc1)NC(=O)[C@@H](Cc1ccc2ccccc2c1)NC(C)=O)C(=O)N[C@@H](CCCCNC(C)C)C(=O)N1CCC[C@H]1C(=O)N[C@H](C)C(N)=O [IBR 25936] (Ac-[d2Nal][dPhe(4-Cl)][d3Pal]SK(Picolinoyl)[dK](Picolinoyl)[aIle][Lys(iPr)]P[dA]-NH2)

From patent publication US5763404A, “Methods for using LHRH antagonists with low histamine release” (priority 1995, dated 1998)
